Test system: FL-SMN mRNA (SMN transcript containing exons 7 and 8)
Experiment: Live-cell assay to measure changes in FL-SMN mRNA levels (qPCR) after exposure to the compounds
Format: cell-based, human
Settings: fibroblasts derived from patients SMA (GM03813); 24 hours incubation
Procedure, shortened: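 SMA patient fibroblasts (GM03813) in DMEM/10% FBS were treated with compound (0.1% DMSO final) for 24 h. FL-SMN and Δ7 mRNA were measured by RT-qPCR against oligo DNA standard curves and normalised to GAPDH. Values are % of the DMSO control, binned by asterisk from ≥100% to ≥180%.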

SMILES | Percentage of increase (FL-SMN mRNA standardized against GAPDH, DMSO control set as 100%)
Cc1cn2cc(-c3ccc4nc(C5CCN(C)CC5)n(C)c(=O)c4c3)ccc2n1 [Example 69, 3-methyl-6-(2-methylimidazo[1,2-a]pyridin-6-yl)-2-(1-methylpiperidin-4-yl)quinazolin-4(3H)-one] | ** (equal to or higher than 120% but lower than 150%)
Cc1cn2cc(-c3ccc4c(c3)c(=O)nc(C3CCN(C)CC3)n4C)ccc2n1 [Example 70, 1-methyl-6-(2-methylimidazo[1,2-a]pyridin-6-yl)-2-(1-methylpiperidin-4-yl)quinazolin-4(1H)-one] | * (equal to or higher than 100% but lower than 120%)
Cc1nc2c(C)cc(-c3ccc4nc(C5CCN(C)CC5)[nH]c(=O)c4c3)cc2o1 [Example 71, 6-(2,4-dimethyl-1,3-benzoxazol-6-yl)-2-(1-methylpiperidin-4-yl)quinazolin-4(3H)-one] | * (equal to or higher than 100% but lower than 120%)
Cc1nc2cc(-c3ccc4nc(C5CCN(C)CC5)[nH]c(=O)c4c3)ccc2o1 [Example 72, 6-(2-methyl-1,3-benzoxazol-5-yl)-2-(1-methylpiperidin-4-yl)quinazolin-4(3H)-one] | * (equal to or higher than 100% but lower than 120%)
Cc1cn2cc(-c3ccc4nc(C5CCN(CC(F)(F)F)CC5)[nH]c(=O)c4c3)ccc2n1 [Example 73, 6-(2-methylimidazo[1,2-a]pyridin-6-yl)-2-[1-(2,2,2-trifluoroethyl)piperidin-4-yl]quinazolin-4(3H)-one] | * (equal to or higher than 100% but lower than 120%)
Cc1cn2cc(-c3ccc4nc(C5CCN(C6CC6)CC5)[nH]c(=O)c4c3)ccc2n1 [Example 74, 2-(1-cyclopropylpiperidin-4-yl)-6-(2-methylimidazo[1,2-a]pyridin-6-yl)quinazolin-4(3H)-one] | ** (equal to or higher than 120% but lower than 150%)
Cc1cn2cc(-c3ccc4nc(C5CCN(C)CC5)[nH]c(=O)c4c3)cc(C(F)(F)F)c2n1 [Example 75, 2-(1-methylpiperidin-4-yl)-6-[2-methyl-8-(trifluoromethyl)imidazo [1,2-a]pyridin-6-yl]quinazolin-4(3H)-one] | ** (equal to or higher than 120% but lower than 150%)
COc1cnc(-c2nc3ccc(N4CCN(C)CC4)cc3c(=O)[nH]2)cc1C [Example 76, 2-(5-methoxy-4-methylpyridin-2-yl)-6-(4-methylpiperazin-1-yl)quinazolin-4(3H)-one] | * (equal to or higher than 100% but lower than 120%)
CN1CCC(c2nc3ccc(-c4ccc(-c5cnn(C)c5)cc4)cc3c(=O)[nH]2)CC1 [Example 77, 2-(1-methylpiperidin-4-yl)-6-[4-(1-methyl-1H-pyrazol-4-yl)phenyl]quinazolin-4(3H)-one] | * (equal to or higher than 100% but lower than 120%)
Cc1cn2nc(-c3nc4ccc(N5CCN(C)CC5=O)cc4c(=O)[nH]3)cc2c(C)n1 [Example 78, 2-(4,6-dimethylpyrazolo[1,5-a]pyrazin-2-yl)-6-(4-methyl-2-oxopiperazin-1-yl)quinazolin-4(3H)-one] | * (equal to or higher than 100% but lower than 120%)
Cc1cn2nc(-c3nc4ccc(N5CCOCC5)cc4c(=O)[nH]3)cc2c(C)n1 [Example 79, 2-(4,6-dimethylpyrazolo[1,5-a]pyrazin-2-yl)-6-(morpholin-4-yl)quinazolin-4(3H)-one] | * (equal to or higher than 100% but lower than 120%)
Cc1cn2ccc(-c3ccc4ncn(C5CCN(C)CC5)c(=O)c4c3)cc2n1 [Example 80, 6-(2-methylimidazo[1,2-a]pyridin-7-yl)-3-(1-methylpiperidin-4-yl)quinazolin-4(3H)-one] | * (equal to or higher than 100% but lower than 120%)
Cc1cn2cc(-c3ccc4nc(C5CCOCC5)[nH]c(=O)c4c3)ccc2n1 [Example 81, 6-(2-methylimidazo[1,2-a]pyridin-6-yl)-2-(tetrahydro-2H4-pyran-4-yl)quinazolin-4(3H)-one] | * (equal to or higher than 100% but lower than 120%)
COCCN1CCN(c2ccc3nc(-c4cc5c(C)nc(C)cn5n4)[nH]c(=O)c3c2)CC1 [Example 82, 2-(4,6-dimethylpyrazolo[1,5-a]pyrazin-2-yl)-6-[4-(2-methoxyethyl)piperazin-1-yl]quinazolin-4(3H)-one] | ** (equal to or higher than 120% but lower than 150%)
Cc1nc2ccc(-c3ccc4nc(C5CCN(C6CC6)CC5)[nH]c(=O)c4c3)cc2o1 [Example 83, 2-(1-cyclopropylpiperidin-4-yl)-6-(2-methyl-1,3-benzoxazol-6-yl)quinazolin-4(3H)-one] | ** (equal to or higher than 120% but lower than 150%)
Cc1cn2cc(-c3ccc4nc(C5(C)CCN(C)CC5)[nH]c(=O)c4c3)ccc2n1 [Example 84, 2-(1,4-dimethylpiperidin-4-yl)-6-(2-methylimidazo[1,2-a]pyridin-6-yl)quinazolin-4(3H)-one] | * (equal to or higher than 100% but lower than 120%)
Cc1cn2cc(-c3ccc4nc(C5(F)CCN(C6CC6)CC5)[nH]c(=O)c4c3)cc(F)c2n1 [Example 85, 2-(4-fluoro-1-cyclopropylpiperidin-4-yl)-6-(8-fluoro-2-methylimidazo[1,2-a]pyridin-6-yl)quinazolin-4(3H)-one] | **** (equal to or higher than 180%)
Cc1cn2cc(-c3ccc4nc(C5(F)CCN(C)CC5)[nH]c(=O)c4c3)cc(F)c2n1 [Example 86, 2-(4-fluoro-1-methylpiperidin-4-yl)-6-(8-fluoro-2-methylimidazo[1,2-a]pyridin-6-yl)quinazolin-4(3H)-one] | *** (equal to or higher than 150% but lower than 180%)
COc1ccc(-c2cc(F)c3nc(C4CCN(C)CC4)[nH]c(=O)c3c2)cc1F [Example 87, 8-fluoro-6-(3-fluoro-4-methoxyphenyl)-2-(1-methylpiperidin-4-yl)quinazolin-4(3H7)-one] | **** (equal to or higher than 180%)
Cc1cn2cc(-c3cc(C)c4nc(C5(F)CCN(C)CC5)[nH]c(=O)c4c3)cc(F)c2n1 [Example 89, 6-(8-fluoro-2-methylimidazo[1,2-a]pyridin-6-yl)-2-(4-fluoro-1-methylpiperidin-4-yl)-8-methylquinazolin-4(3H4)-one] | **** (equal to or higher than 180%)
CCN1CCC(F)(c2nc3c(C)cc(-c4cc(F)c5nc(C)cn5c4)cc3c(=O)[nH]2)CC1 [Example 90, 2-(1-ethyl-4-fluoropiperidin-4-yl)-6-(8-fluoro-2-methylimidazo[1,2-a]pyridin-6-yl)-8-methylquinazolin-4(3H4)-one] | **** (equal to or higher than 180%)
Cc1cn2cc(-c3ccc4nc(C5(F)CCN(C(C)C)CC5)[nH]c(=O)c4c3)cc(F)c2n1 [Example 91, 2-(4-fluoro-1-isopropylpiperidin-4-yl)-6-(8-fluoro-2-methylimidazo[1,2-a]pyridin-6-yl)quinazolin-4(3H)-one] | **** (equal to or higher than 180%)
CCN1CCC(F)(c2nc3ccc(-c4cc(F)c5nc(C)cn5c4)cc3c(=O)[nH]2)CC1 [Example 92, 2-(1-Ethyl-4-fluoropiperidin-4-yl)-6-(8-fluoro-2-methylimidazo[1,2-a]pyridin-6-yl)quinazolin-4(3H)-one] | **** (equal to or higher than 180%)
Cc1cn2cc(-c3ccc4nc(C5(F)CCN(CC(F)F)CC5)[nH]c(=O)c4c3)cc(F)c2n1 [Example 93, 2-[1-(2,2-difluoroethyl)-4-fluoropiperidin-4-yl]-6-(8-fluoro-2-methylimidazo[1,2-a]pyridin-6-yl)quinazolin-4(3H)-one] | *** (equal to or higher than 150% but lower than 180%)
Cc1cn2cc(-c3cc(F)c4nc(C5(F)CCN(C)CC5)[nH]c(=O)c4c3)ccc2n1 [Example 94, 8-fluoro-2-(4-fluoro-1-methylpiperidin-4-yl)-6-(2-methylimidazo[1,2-a]pyridin-6-yl)quinazolin-4(3H)-one] | *** (equal to or higher than 150% but lower than 180%)
CCN1CCC(F)(c2nc3c(F)cc(-c4ccc5nc(C)cn5c4)cc3c(=O)[nH]2)CC1 [Example 95, 2-(1-ethyl-4-fluoropiperidin-4-yl)-8-fluoro-6-(2-methylimidazo[1,2-a]pyridin-6-yl)quinazolin-4(3H)-one] | *** (equal to or higher than 150% but lower than 180%)
Cc1cn2cc(-c3cc(F)c4nc(C5(F)CCN(C(C)C)CC5)[nH]c(=O)c4c3)ccc2n1 [Example 96, 8-fluoro-2-(4-fluoro-1-isopropylpiperidin-4-yl)-6-(2-methylimidazo[1,2-a]pyridin-6-yl)quinazolin-4(3H)-one] | *** (equal to or higher than 150% but lower than 180%)
Cc1cn2cc(-c3cc(F)c4nc(C5(F)CCN(C)CC5)[nH]c(=O)c4c3)cc(F)c2n1 [Example 97, 8-fluoro-6-(8-fluoro-2-methylimidazo[1,2-a]pyridin-6-yl)-2-(4-fluoro-1-methylpiperidin-4-yl)quinazolin-4(3H)-one] | **** (equal to or higher than 180%)
